The values that follow come from US20200113902A1, “COMPOSITIONS AND METHODS FOR TREATING CANCERS WITH COVALENT INHIBITORS OF CYCLIN-DEPENDENT KINASE 7 (CDK7)” (Syros Pharmaceuticals, Inc., priority 2017, published 2020).

The test system of test [1] is OV15612 xenograft. Briefly: Ovarian PDX OV15612, tumor volume. The class given is in vivo, mouse. As to conditions: OV15612 (FGFR1 super enhancer, CCNE1 high); 40 or 30 mg/kg i.v. BIW. The protocol: (§1) Patient-derived xenograft (PDX) models from ovarian carcinoma patients (OV5387, OV14702, OV14972, OV15398, OV15576, OV15696, OV15612, OV15631) were established in NOD-SCID mice at Crown Bioscience (San Diego, USA). Cryo vials containing tumor cells were thawed and prepared for injection into mice. Cells were washed in PBS, counted, and resuspended in cold PBS at a concentration of 50,000-100,000 viable cells/100 ul. Cell suspensions were mixed with an equal volume of Cultrex ECM and kept on ice during transport to the vivarium. Cells were prepared for injections by withdrawing ECM-Cell mixture into a chilled slip-tip syringe fitted with a 26G 7/8 (0.5 mm×22 mm) needle. The filled syringes were kept on ice to avoid the solidification of ECM. Each mouse was inoculated subcutaneously in the right flank with 200 uL of the cell suspension. Tumor sizes were measured in two dimensions using a caliper, and the volumes were expressed in mm3 using the formula: V=0.5 a×b^2 where a and b are the longest and shortest diameters of the tumor, respectively. Compound 1 treatment was started when the average tumor size reached 150-200 mm^3.
(§2) Compound 1 was formulated in w/v 20% Captisol (pH 4-6) and administered by i.v. twice weekly (BIW) at a final dose of 40 mg/kg or 30 mg/kg in a 10 ml/kg volume. Tumor volumes were measured twice weekly over the course of the study. […]

In test [2] the test system is MDA-MB-468 cells. Briefly: Growth rate (GR) inhibition, Cell Titer Glo 2.0, MDA-MB-468. The class given is cell-based, human. As to conditions: concentrations greater than 100 nM, 72 hours. The protocol:
To determine the effect of Compound 1 on the growth of TNBC cancer cells, four different human TNBC cell lines were used—HCC70, MDA-MB-468, MDA-MB-453 and CAL120. Cells from each cell line were plated separately at 50,000 cells/mL (100 uL per well) in a black-walled 96 well plate and allowed to adhere overnight. In parallel, cells were plated in a separate day 0 plate to measure the number of cells present upon compound addition. The next day, Compound 1 was added to the wells with an HP 300e compound dispenser in a 10-point serial dilution and cells incubated for 72 hours. On the same day Cell Titer Glo 2.0 reagent was added to the day 0 plate, and the luminescence measured with an Envision plate reader per manufacture protocol. After 72 hours Cell Titer Glo 2.0 reagent was added to the plates and the luminescence measured. GR curves were calculated as follows: […]
wherein x(c) is the Compound 1 treatment luminescence); x0 is the average Day 0 luminescence); and xctrl is the average DMSO treatment luminescence, and graphed using Graph Pad Prism. A GR value of 1 indicates no growth inhibition; GR values between 0 and 1 indicate partial growth inhibition; a GR value of 0 indicates cytostasis (no change from baseline); GR values less than 0 indicate cytotoxicity (cell number less than baseline); a GR value of −1 indicates complete cell loss.

Test [3] concerns OV15398 xenograft. Nature of the test: Ovarian PDX OV15398, tumor volume. As to conditions: OV15398 (very low CDKN2A); 40 or 30 mg/kg i.v. BIW. The class given is in vivo, mouse. How it is done: as §1, §2
Test [4] relates to OV15696 xenograft. Briefly: Ovarian PDX OV15696, tumor volume. The class given is in vivo, mouse. Particulars: 40 or 30 mg/kg i.v. BIW. How it is done: as §1, §2
Test [5] deals with HR^+ breast cancer cells. Briefly: Inhibition of HR^+ breast cancer cells in vitro (data not shown). The class given is cell-based. As to conditions: including cells with acquired resistance to aromatase inhibitors and cells no longer responding to CDK4/6 inhibitors.
In test [6] the test system is MCL1 protein in OCI-AML3 cells. Briefly: Western blot, AML cell line OCI-AML3. In kind it is cell-based. Particulars: 50 nM. How it is done:
(§3) Cytotoxic cancer cell lines HCC70 and TOV21G, and cytostatic cancer cell lines T47D and COV318 were seeded in wells of a six-well dish at a density of 1×10^6 cells/well and allowed to adhere overnight. Cells were then treated with 50 nM of Compound 1 for 16 or 24 hours, or with DMSO (0 hours) representing a negative control. Cells were harvested and placed on ice, and resuspended in RIPA lysis buffer supplemented with protease and phosphatase inhibitors. Clarified lysates prepared with 4×LSD running buffer and boiled at 95° C. for 5 minutes. Equivalent amounts of sample (10 μg total protein) were run on a 4-12% Bis-Tris gel and transferred to a PDVF membrane for Western blotting using standard Western blotting protocols. Membranes were blocked with Licor TBS blocking buffer then probed with antibodies for BCL-XL, BCL-2, MCL1, BID, and GAPDH visualized using and Odyssey imager (FIGS. 23A and 23D).
We next explored the expression of MCL1, BCL-XL and BCL2 in four different AML cell lines. MV411, OCI-AML3 and KG1 cells were separately grown and prepared as described in Example 2 for Western blotting, using antibodies specific for BCL2 (FIG. 24A), BCL-XL, MCL-1 and tubulin as an internal control (FIG. 24B).

The test system of test [7] is MCL1 protein in HCC70 xenograft tumor. Nature of the test: HCC70 xenograft tumor, Western blot. In kind it is in vivo. Particulars: HCC70 xenograft mouse; single dose of 40 mg/kg. How it is done:
as §3
Subcutaneous HCC70 xenografts were established in BALC/c nude mice at ChemPartner (Shanghai, China). Each mouse was inoculated subcutaneously in the right flank with 5×10^6 HCC70 cells (ATCC, CAT #: CRL-2315) in 0.2 ml of a 1:1 mixture of base medium and Matrigel. Tumor sizes were measured in two dimensions using a caliper, and the volumes were expressed in mm^3 using the formula: V=0.5 a×b^2 where a and b are the longest and shortest diameters of the tumor, respectively. […]

On to `CN(C)C/C=C/C(=O)Nc1ccc(C(=O)N[C@@]2(C)CCC[C@@H](Nc3ncc(Cl)c(-c4c[nH]c5ccccc45)n3)C2)nc1` [Compound 1, N-((1S,3R)-3-(5-chloro-4-(1H-indol-3-yl)pyrimidin-2-ylamino)-1-methylcyclohexyl)-5-((E)-4-(dimethylamino)but-2-enamido)picolinamide], for which the “Response to treatment (tumor growth)” value in test [1] is listed as “responded”; in test [3], “responded”; in test [4] it was “non-responders”. In test [2], the “Inhibition of growth (GR curve)” value is listed as “almost complete inhibition of growth”. In test [5], the “Inhibition of HR^+ breast cancer cells in vitro” value was “inhibits many HR^+ breast cancer cells in vitro”. In addition, in test [6], the “MCL1 protein level (Western blot)” value is listed as “significant reduction in MCL1”. The “MCL1 protein expression in tumor (Western blot)” value in test [7] is “reduced MCL1 protein expression”.
